Laboratory results published in US20220289732A1, “HETEROCYCLIC WDR5 INHIBITORS AS ANTI-CANCER COMPOUNDS” (NOVARTIS AG, priority 2019, published 2022).

Tests used:
WDR5 = WDR5 (Homo sapiens, UniProt P61964); assay: WDR5 HTRF binding assay; conditions: read-out: (a) WDR5 HTRF Pep Val v.1[Inhibitor/IC50]Qualified AC50
How it was run: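 In this HTRF displacement format, biotinylated MLL1 WIN peptide (3762-3773, 20 nM) binds WDR5 (6 nM) in 25 mM Hepes pH 7.5 with 100 mM NaCl, 2 mM DTT and 0.1% BSA for 20 min at rt. Detection used streptavidin-APC/anti-His-Eu for 1 hr. IC50 came from dose-response fits of normalized signal; 15 nM biotin-PEG-His peptide served as counter assay.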

[1] = biological target: wild type MLL1 four-member complex (MLL1-4C) (Homo sapiens, UniProt P61964); assay: MLL1 LC-MS assay (SAH production); assay type: biochemical; conditions: read-out: (b) MLL LCMS Peptide Val.v.1 Qualified AC50
How it was run: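 SAH formation, measured by LC-MS/MS after a TFA quench containing d4-SAH, was normalised to no-compound and no-enzyme controls and fitted to a dose-response curve for IC50. Reactions ran 120 min at rt (pH 8.0 Tris buffer) with final 30 nM MLL1 four-member complex, 2.5 μM SAM and 10 μM biotinylated H3[1-21] peptide, after a 20-min enzyme/SAM-compound preincubation.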

MV4-11 cells = assay: MV4-11 6-day cell growth CTG (CellTiter-Glo) assay; assay type: cell-based; conditions: Homo sapiens, MV4-11, 144 h, 6 days, read-out: (c) MLL/WDR5 cell proliferation assay//MLL/WDR5 proliferation MV4:11 Qualified AC50
How it was run: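 IC50 comes from a dose-response fit of % inhibition relative to DMSO controls, with viable cells measured by CellTiter-Glo luminescence. Compounds were tested over 12 points (1:3, starting at 50 μM final) on MV4-11 cells plated at 300/well and grown 6 days.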

IC50 (WDR5) [µM]	AC50 [1] [µM]	Compound	AC50 (MV4-11 cells) [µM]
0.01 to 1	0.01 to 1	CNc1nccn1Cc1cc(CN2CC(F)C2)c2c(c1)C(=O)N(Cc1cnc(F)c(OC)c1)CC2 [Example 33, 2-((6-fluoro-5-methoxypyridin-3-yl)methyl)-5-((3-fluoroazetidin-1-yl)methyl)-7-((2-(methylamino)-1H-imidazol-1-yl)methyl)-3,4-dihydroisoquinolin-1(2H)-one]	0.01 to 1
0.01 to 1	0.01 to 1	CCOc1cc(C(C)N2CCc3c(cc(CCN(C)CC)cc3-c3cc(C)nn3C)C2=O)ncc1C#N (stereo not drawn) [Example 205, 6-(1-(5-(1,3-dimethyl-1H-pyrazol-5-yl)-7-(2-(ethyl(methyl)amino)ethyl)-1-oxo-3,4-dihydroisoquinolin-2(1H)-yl)ethyl)-4-ethoxynicotinonitrile]	0.01 to 1
0.01 to 1	0.01 to 1	CCOc1cc([C@H](C)N2CCc3c(cc(CCN(C)CC)cc3C(O)C(C)C)C2=O)ncc1C#N (stereo partly drawn) [Example 256, 4-ethoxy-6-((1S)-1-(7-(2-(ethyl(methyl)amino)ethyl)-5-(1-hydroxy-2-methylpropyl)-1-oxo-3,4-dihydroisoquinolin-2(1H)-yl)ethyl)nicotinonitrile]	0.01 to 1
< 0.01	0.01 to 1	CCOc1cc([C@H](C)N2CCc3c(cc(CCN(C)CC)cc3-c3cc(OC)cnc3C)C2=O)ncc1C#N [Example 167, (S)-4-ethoxy-6-(1-(7-(2-(ethyl(methyl)amino)ethyl)-5-(5-methoxy-2-methylpyridin-3-yl)-1-oxo-3,4-dihydroisoquinolin-2(1H)-yl)ethyl)nicotinonitrile]	0.01 to 1
0.01 to 1	0.01 to 1	CNc1nccn1Cc1cc(CN(C)CCF)c2c(c1)C(=O)N([C@@H](C)c1cc(OC)c(F)cn1)CC2 [Example 49, (S)-2-(1-(5-fluoro-4-methoxypyridin-2-yl)ethyl)-5-(((2-fluoroethyl)(methyl)amino)methyl)-7-((2-(methylamino)-1H-imidazol-1-yl)methyl)-3,4-dihydroisoquinolin-1(2H)-one]	0.01 to 1
< 0.01	0.01 to 1	CCOc1cc([C@H](C)N2CCc3c(cc(CCN(C)CC)cc3-c3cn(C)c(=O)c(F)c3C)C2=O)ncc1C#N [Example 169, (S)-4-ethoxy-6-(1-(7-(2-(ethyl(methyl)amino)ethyl)-5-(5-fluoro-1,4-dimethyl-6-oxo-1,6-dihydropyridin-3-yl)-1-oxo-3,4-dihydroisoquinolin-2(1H)-yl)ethyl)nicotinonitrile]	0.01 to 1
0.01 to 1	0.01 to 1	CCOc1cc(CN2CCc3c(cc(CCN4C[C@@H](O)[C@H]4C)cc3-c3cn(C)c(=O)cc3C(F)(F)F)C2=O)ncc1C#N [Example 224]	0.01 to 1
0.01 to 1	0.01 to 1	CCOc1cc([C@H](C)N2CCc3c(cc(CCN(C)CC)cc3-c3ccncc3Cl)C2=O)ncc1C#N [Example 152, (S)-6-(1-(5-(3-chloropyridin-4-yl)-7-(2-(ethyl(methyl)amino)ethyl)-1-oxo-3,4-dihydroisoquinolin-2(1H)-yl)ethyl)-4-ethoxynicotinonitrile]	0.01 to 1
< 0.01	0.01 to 1	CCOc1cc([C@H](C)N2CCc3c(cc(Cn4ccnc4C)cc3[C@H]3CCCN3C)C2=O)ncc1C#N (single isomer, unassigned) [Example 267]	0.01 to 1
0.01 to 1	0.01 to 1	CCOc1cc([C@@H](C)N2CCc3c(cc(Cn4ccnc4NC)cc3C3CC3)C2=O)ncc1C#N [Example 82, (R)-6-(1-(5-cyclopropyl-7-((2-(methylamino)-1H-imidazol-1-yl)methyl)-1-oxo-3,4-dihydroisoquinolin-2(1H)-yl)ethyl)-4-ethoxynicotinonitrile]	0.01 to 1
0.01 to 1	0.01 to 1	CCOc1cc([C@H](C)N2CCc3c(CN(C)C4CC4)cc(Cn4ccnc4NC)cc3C2=O)ncc1F [Example 21, (S)-5-((cyclopropyl(methyl)amino)methyl)-2-(1-(4-ethoxy-5-fluoropyridin-2-yl)ethyl)-7-((2-(methylamino)-1H-imidazol-1-yl)methyl)-3,4-dihydroisoquinolin-1(2H)-one]	0.01 to 1
< 0.01	0.01 to 1	CCOc1cc(C(C)N2CCc3c(cc(CCN(C)CC)cc3C(O)C(F)(F)F)C2=O)ncc1C#N (stereo not drawn) [Example 259, 4-ethoxy-6-(1-(7-(2-(ethyl(methyl)amino)ethyl)-1-oxo-5-(2,2,2-trifluoro-1-hydroxyethyl)-3,4-dihydroisoquinolin-2(1H)-yl)ethyl)nicotinonitrile]	0.01 to 1
< 0.01	0.01 to 1	CCOc1cc(C(C)N2CCc3c(cc(CCN(C)CC)cc3C(O)C(C)C(F)(F)F)C2=O)ncc1C#N (stereo not drawn) [Example 258, 4-ethoxy-6-(1-(7-(2-(ethyl(methyl)amino)ethyl)-1-oxo-5-(3,3,3-trifluoro-1-hydroxy-2-methylpropyl)-3,4-dihydroisoquinolin-2(1H)-yl)ethyl)nicotinonitrile]	0.01 to 1
0.01 to 1	0.01 to 1	CNc1nccn1Cc1cc(CN(C)C2COC2)c2c(c1)C(=O)N([C@@H](C)c1cc(OC)c(F)cn1)CC2 [Example 13]	0.01 to 1
< 0.01	0.01 to 1	CCOc1cc([C@H](C)N2CCc3c(CN4CC[C@@H](F)C4)cc(Cn4ccnc4NC)cc3C2=O)ncc1C#N [Example 11, 4-ethoxy-6-((S)-1-(5-(((R)-3-fluoropyrrolidin-1-yl)methyl)-7-((2-(methylamino)-1H-imidazol-1-yl)methyl)-1-oxo-3,4-dihydroisoquinolin-2(1H)-yl)ethyl)nicotinonitrile]	0.01 to 1
< 0.01	0.01 to 1	CCOc1cc([C@H](C)N2CCc3c(cc(CCN(C)CCOC)cc3-c3cn(C)c(=O)cc3Cl)C2=O)ncc1C#N [Example 240]	0.01 to 1
0.01 to 1	0.01 to 1	CCOc1cc([C@H](C)N2CCc3c(cc(CCN(C)CC)cc3-c3ccn(C)c(=O)c3C(F)(F)F)C2=O)ncc1C#N [Example 195, (S)-4-ethoxy-6-(1-(7-(2-(ethyl(methyl)amino)ethyl)-5-(1-methyl-2-oxo-3-(trifluoromethyl)-1,2-dihydropyridin-4-yl)-1-oxo-3,4-dihydroisoquinolin-2(1H)-yl)ethyl)nicotinonitrile]	0.01 to 1
0.01 to 1	0.01 to 1	CNc1nccn1Cc1cc2c(c(C3CC3)c1)CCN([C@@H](C)c1cc(OC)c(F)cn1)C2=O [Example 85, (S)-5-cyclopropyl-2-(1-(5-fluoro-4-methoxypyridin-2-yl)ethyl)-7-((2-(methylamino)-1H-imidazol-1-yl)methyl)-3,4-dihydroisoquinolin-1(2H)-one]	0.01 to 1
0.01 to 1	0.01 to 1	CNc1nccn1Cc1cc(CN(C)CC(F)(F)F)c2c(c1)C(=O)N([C@@H](C)c1cc(OC)c(F)cn1)CC2 [Example 47, (S)-2-(1-(5-fluoro-4-methoxypyridin-2-yl)ethyl)-5-((methyl(2,2,2-trifluoroethyl)amino)methyl)-7-((2-(methylamino)-1H-imidazol-1-yl)methyl)-3,4-dihydroisoquinolin-1(2H)-one]	0.01 to 1
0.01 to 1	0.01 to 1	CCOc1cc([C@H](C)N2CCc3c(cc(Cn4ccnc4NC)cc3C(F)F)C2=O)ncc1F [Example 91, (S)-5-(difluoromethyl)-2-(1-(4-ethoxy-5-fluoropyridin-2-yl)ethyl)-7-((2-(methylamino)-1H-imidazol-1-yl)methyl)-3,4-dihydroisoquinolin-1(2H)-one]	0.01 to 1
0.01 to 1	0.01 to 1	CCOc1cc([C@H](C)N2CCc3c(cc(CCN(C)CC)cc3-c3cc(C)ncc3F)C2=O)ncc1C#N [Example 142, (S)-4-ethoxy-6-(1-(7-(2-(ethyl(methyl)amino)ethyl)-5-(5-fluoro-2-methylpyridin-4-yl)-1-oxo-3,4-dihydroisoquinolin-2(1H)-yl)ethyl)nicotinonitrile]	0.01 to 1
< 0.01	0.01 to 1	CCOc1cc([C@H](C)N2CCc3c(cc(CCN4C[C@@H](O)[C@H]4C)cc3-c3ccc(N)nc3C)C2=O)ncc1C#N [Example 219]	0.01 to 1
< 0.01	0.01 to 1	CCOc1cc([C@H](C)N2CCc3c(cc(CCN(C)CC)cc3-c3cn(C)c(=O)cc3C(F)(F)F)C2=O)ncc1C#N [Example 182, (S)-4-ethoxy-6-(1-(7-(2-(ethyl(methyl)amino)ethyl)-5-(1-methyl-6-oxo-4-(trifluoromethyl)-1,6-dihydropyridin-3-yl)-1-oxo-3,4-dihydroisoquinolin-2(1H)-yl)ethyl)nicotinonitrile]	0.01 to 1
